molecular target: T1, PI3Kγ (p101/p110γ protein) (Homo sapiens, UniProt P48736); assay: PI3Kγ In Vitro Kinase Assay; format: biochemical; conditions: purified recombinant p101/p110γ with G protein β1/γ2 subunits; 20 μM ATP, 25 μM PIP2; 20 minutes at room temperature
T1 construct: HA; made in house; host or cells: Spodoptera frugiperda (Sf9) cells, baculovirus co-infection
In short: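 Reactions ran 20 min at room temperature, pairing lipid micelles (25 μM PIP2, 300 μM PE, 0.02% Na-cholate, 10 mM MgCl2) with 20 μM ATP including [γ-32P]ATP. The enzyme was recombinant p101/p110γ (2.7 nM) with G protein β1/γ2 (57.7 nM). [32P]PIP3 product was stopped with H3PO4, filtered and scintillation counted.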

T1 sequence (P48736 whole entry, species assumed): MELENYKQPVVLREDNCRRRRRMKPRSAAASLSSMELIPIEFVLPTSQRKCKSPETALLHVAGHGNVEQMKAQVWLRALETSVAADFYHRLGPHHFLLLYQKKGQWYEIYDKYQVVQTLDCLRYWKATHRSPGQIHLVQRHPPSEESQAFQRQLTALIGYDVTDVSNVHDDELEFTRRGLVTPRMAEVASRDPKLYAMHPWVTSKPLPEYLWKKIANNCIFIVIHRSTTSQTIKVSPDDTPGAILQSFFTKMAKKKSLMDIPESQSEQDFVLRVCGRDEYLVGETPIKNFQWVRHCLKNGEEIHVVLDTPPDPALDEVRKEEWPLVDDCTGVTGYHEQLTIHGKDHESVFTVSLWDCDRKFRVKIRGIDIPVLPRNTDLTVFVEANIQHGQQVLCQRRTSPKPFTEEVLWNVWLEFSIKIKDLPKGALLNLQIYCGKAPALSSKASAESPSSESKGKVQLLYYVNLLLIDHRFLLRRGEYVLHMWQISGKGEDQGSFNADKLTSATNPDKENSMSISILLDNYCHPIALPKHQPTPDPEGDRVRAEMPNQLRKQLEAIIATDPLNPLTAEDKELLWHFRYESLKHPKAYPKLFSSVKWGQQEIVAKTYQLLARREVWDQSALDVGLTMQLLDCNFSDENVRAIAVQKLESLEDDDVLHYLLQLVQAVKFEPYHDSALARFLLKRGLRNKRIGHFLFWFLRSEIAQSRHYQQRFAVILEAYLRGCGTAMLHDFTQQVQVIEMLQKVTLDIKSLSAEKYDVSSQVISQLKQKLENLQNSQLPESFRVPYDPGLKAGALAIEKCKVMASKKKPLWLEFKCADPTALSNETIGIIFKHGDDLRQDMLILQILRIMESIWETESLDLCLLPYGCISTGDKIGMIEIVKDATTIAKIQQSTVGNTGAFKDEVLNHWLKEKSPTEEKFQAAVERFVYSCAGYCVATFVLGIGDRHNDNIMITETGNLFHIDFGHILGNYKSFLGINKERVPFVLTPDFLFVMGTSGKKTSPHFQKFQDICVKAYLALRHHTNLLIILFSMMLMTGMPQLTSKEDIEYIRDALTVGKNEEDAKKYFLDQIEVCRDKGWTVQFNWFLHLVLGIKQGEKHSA
T1 sequence (Q8WYR1 whole entry partner, species assumed): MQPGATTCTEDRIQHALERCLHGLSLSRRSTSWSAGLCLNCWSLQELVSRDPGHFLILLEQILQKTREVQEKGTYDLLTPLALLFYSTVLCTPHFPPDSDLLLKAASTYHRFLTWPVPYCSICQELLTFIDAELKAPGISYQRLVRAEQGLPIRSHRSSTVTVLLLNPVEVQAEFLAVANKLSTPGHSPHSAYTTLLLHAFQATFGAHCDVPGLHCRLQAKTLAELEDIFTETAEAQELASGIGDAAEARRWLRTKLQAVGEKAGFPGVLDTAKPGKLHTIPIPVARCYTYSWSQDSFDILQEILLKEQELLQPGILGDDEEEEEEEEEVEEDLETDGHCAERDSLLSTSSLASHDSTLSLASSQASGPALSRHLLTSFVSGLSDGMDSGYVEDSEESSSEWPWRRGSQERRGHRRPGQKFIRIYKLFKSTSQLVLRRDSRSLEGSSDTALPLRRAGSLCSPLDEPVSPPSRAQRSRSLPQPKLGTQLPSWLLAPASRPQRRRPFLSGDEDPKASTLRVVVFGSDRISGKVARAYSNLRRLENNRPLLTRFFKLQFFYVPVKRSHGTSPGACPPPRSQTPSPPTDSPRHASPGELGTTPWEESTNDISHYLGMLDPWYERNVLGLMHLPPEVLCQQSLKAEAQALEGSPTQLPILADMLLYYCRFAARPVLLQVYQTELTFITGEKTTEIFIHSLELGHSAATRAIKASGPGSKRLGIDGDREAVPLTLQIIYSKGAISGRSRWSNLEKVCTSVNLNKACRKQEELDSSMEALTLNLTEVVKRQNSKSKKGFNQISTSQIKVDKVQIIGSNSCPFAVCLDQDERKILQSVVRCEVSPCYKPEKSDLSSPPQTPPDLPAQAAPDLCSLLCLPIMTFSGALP

Row | SMILES | IC50 [µM]
1 | O=C1NC(=S)SC1=Cc1ccc2c(c1)N(OCc1ccc(Cl)c(Cl)c1)C(=O)CO2 [Example 88, 4-(3,4-Dichloro-benzyloxy)-6-(4-oxo-2-thioxo-thiazolidin-5-ylidenemethyl)-4H-benzo[1,4]oxazin-3-one] | 0.003
2 | Cc1cc(C)cc(CON2C(=O)COc3ccc(C=C4SC(=S)NC4=O)cc32)c1 [Example 89, 4-(3,5-Dimethyl-benzyloxy)-6-(4-oxo-2-thioxo-thiazolidin-5-ylidenemethyl)-4H-benzo[1,4]oxazin-3-one] | 0.004
3 | O=C1NC(=S)SC1=Cc1ccc2c(c1)N(OCc1ccccc1)C(=O)CO2 [Example 90, 4-Benzyloxy-6-(4-oxo-2-thioxo-thiazolidin-5-ylidenemethyl)-4H-benzo[1,4]oxazin-3-one] | 0.004
4 | Cc1cc(C=C2SC(=S)NC2=O)cc2c1OCC(=O)N2Cc1ccc(CN2CCCCC2)cc1 [Example 91, 8-Methyl-6-(4-oxo-2-thioxo-thiazolidin-5-ylidenemethyl)-4-(4-piperidin-1-ylmethyl-benzyl)-4H-benzo[1,4]oxazin-3-one] | 0.008
5 | CCN(CC)Cc1ccc(CN2C(=O)COc3c(C)cc(C=C4SC(=S)NC4=O)cc32)cc1 [Example 92, 4-(4-Diethylaminomethyl-benzyl)-8-methyl-6-(4-oxo-2-thioxo-thiazolidin-5-ylidenemethyl)-4H-benzo[1,4]oxazin-3-one] | 0.006
6 | CCN(CC)Cc1ccc(CN2C(=O)COc3ccc(C=C4SC(=O)NC4=O)cc32)cc1 [Example 93, 5-[4-(4-Diethylaminomethyl-benzyl)-3-oxo-3,4-dihydro-2H-benzo[1,4]oxazin-6-ylmethylene]-thiazolidine-2,4-dione] | 0.016
7 | O=C1NC(=S)SC1=Cc1cc(F)c2c(c1)N(Cc1ccc3nccnc3c1)C(=O)CO2 [Example 315, 8-Fluoro-6-(4-Oxo-2-thioxo-thiazolidin-5-ylidenemethyl)-4-quinoxalin-6-ylmethyl-4H-benzo[1,4]oxazin-3-one; Compound with Ethane-1,2-diamine] | 0.044
8 | O=C1COc2ccc(C=C3SC(=S)N(c4ccccc4)C3=O)cc2N1Cc1ccc(Cl)s1 [Example 316, 4-(5-Chloro-thiophen-2-ylmethyl)6-(4-oxo-3-phenyl-2-thioxo-thiazolidin-5-ylidenemethyl)-4H-benzo[1,4]oxazin-3-one] | 3.7
9 | Cc1cc(CN2C(=O)COc3ccc(C=C4SC(=S)NC4=O)cc32)c(C)o1 [Example 317, 4-(2,5-Dimethyl-furan-3-ylmethyl)-6-(4-oxo-2-thioxo-thiazolidin-5-ylidenemethyl)-4H-benzo[1,4]oxazin-3-one] | 0.021
10 | Cc1cc(CN2C(=O)COc3c(F)cc(C=C4SC(=S)NC4=O)cc32)c(C)o1 [Example 318, 4-(2,5-Dimethyl-furan-3-ylmethyl)-8-fluoro-6-(4-oxo-2-thioxo-thiazolidin-5-ylidenemethyl)-4H-benzo[1,4]oxazin-3-one] | 0.025
11 | O=C1NC(=S)SC1=Cc1cc(F)c2c(c1)N(Cc1ccc(Cl)s1)C(=O)CO2 [Example 319, 4-(5-Chloro-thiophen-2-ylmethyl)-8-fluoro-6-(4-oxo-2-thioxo-thiazolidin-5-ylidenemethyl)-4H-benzo[1,4]oxazin-3-one] | 0.005
12 | Cc1cc(CN2C(=O)COc3ccc(C=C4SC(=S)N(CC(=O)O)C4=O)cc32)c(C(F)(F)F)o1 [Example 321, {5-[4-(5-Methyl-2-triflouromethyl-furan-3-ylmethyl)-3-oxo-3,4-dihydro-2H-benzo[1,4]oxazin-6-ylmethylene]-4-oxo-2-thioxo-thiazolidin-3-yl}-acetic acid; Compound with ethane-1,2-diamine] | 9.73
13 | O=C1NC(=S)SC1=Cc1ccc2c(c1)N(Cc1ccc(Cl)s1)C(=O)CO2 [Example 322, 4-(5-Chloro-thiophen-2-ylmethyl)-6-(4-oxo-2-thioxo-thiazolidin-5-ylidenemethyl)-4H-benzo[1,4]oxazin-3-one] | 0.003
14 | O=C1NC(=S)SC1=Cc1ccc2c(c1)N(Cc1cnc3ccccc3c1)C(=O)CO2 [Example 323, 6-(4-Oxo-2-thioxo-thiazolidin-5-ylidenemethyl)-4-quinolin-3-ylmethyl-4H-benzo[1,4]oxazin-3-one] | 0.029
15 | Cc1cc(CN2C(=O)COc3ccc(C=C4SC(=S)NC4=O)cc32)c(C(F)(F)F)o1 [Example 324, 4-(5-Methyl-2-triflouromethyl-furan-3-ylmethyl)-6-(4-oxo-2-thioxo-thiazolidin-5-ylidenemethyl)-4H-benzo[1,4]oxazin-3-one] | 0.033
16 | Cc1cc(CN2C(=O)COc3c(F)cc(C=C4SC(=S)NC4=O)cc32)nn1C(C)(C)C [Example 325, 4-(1-tert-Butyl-5-methyl-1H-pyrazol-3-ylmethyl)-8-flouro-6-(4-oxo-2-thioxo-thiazolidin-5-ylidenemethyl)-4H-benzo[1,4]oxazin-3-one] | 0.018

Row | SMILES | IC50 [µM]
17 | Cc1cc(CN2C(=O)COc3ccc(C=C4SC(=S)NC4=O)cc32)nn1C(C)(C)C [Example 326, 4-(1-tert-Butyl-5-methyl-1H-pyrazol-3-ylmethyl)-6-(4-oxo-2-hioxo-thiazolidin-5-ylidenemethyl)-4H-benzo[1,4]oxazin-3-one] | 0.025
18 | CC(C)(C)c1cc(CN2C(=O)COc3ccc(C=C4SC(=S)NC4=O)cc32)n(Cc2ccccc2)n1 [Example 327, 4-(2-Benzyl-5-tert-butyl-2H-pyrazol-3-ylmethyl)-6-(4-oxo-2-thioxo-thiazolidin-5-ylidenemethyl)-4H-benzo[1,4]oxazin-3-one] | 0.245
19 | O=C1NC(=S)SC1=Cc1cc(F)c2c(c1)N(Cc1ccc3ncccc3c1)C(=O)CO2 [Example 328, 8-Fluoro-6-(4-oxo-2-thioxo-thiazolidin-5-ylidenemethyl)-4-quinolin-6-ylmethyl-4H-1,4-benzoxazin-3-one] | 0.006
20 | Cc1cc(CN2C(=O)COc3ccc(C=C4SC(=S)NC4=O)cc32)nn1C [Example 329, 4-(1,5-Dimethyl-1H-pyrazol-3-ylmethyl)-6-(4-oxo-2-thioxo-thiazolidin-5-ylidenemethyl)-4H-1,4-benzoxazin-3-one] | 0.028
21 | O=C1NC(=S)SC1=Cc1cc(F)c2c(c1)N(Cc1cncc(Cl)c1)C(=O)CO2 [Example 330, 4-(5-Chloro-pyridin-3-ylmethyl)-8-fluoro-6-(4-oxo-2-thioxo-thiazolidin-5-ylidenemethyl)-4H-1,4-benzoxazin-3-one] | 0.047
22 | CC(C)(O)c1cc(CN2C(=O)COc3c(F)cc(C=C4SC(=S)NC4=O)cc32)ccc1Cl [Example 331, 4-[4-Chloro-3-(1-hydroxy-1-methyl-ethyl)-benzyl]-8-fluoro-6-(4-oxo-2-thioxo-thiazolidin-5-ylidenemethyl)-4H-1,4-benzoxazin-3-one; Compound with Ethane-1,2-diamine] | 0.009
23 | CC(C)(O)c1cc(CN2C(=O)COc3ccc(C=C4SC(=S)NC4=O)cc32)ccc1Cl [Example 332, 4-[4-Chloro-3-(1-hydroxy-1-methyl-ethyl)-benzyl]-6-(4-oxo-2-thioxo-thiazolidin-5-ylidenemethyl)-4H-1,4-benzoxazin-3-one; compound with ethane-1,2-diamine] | 0.007
24 | O=C1NC(=S)SC1=Cc1ccc2c(c1)N(Cc1cccs1)C(=O)CO2 [Example 333, 6-(4-Oxo-2-thioxo-thiazolidin-5-ylidenemethyl)-4-thiophen-2-ylmethyl-4H-1,4-benzoxazin-3-one] | 0.007
25 | Cc1cncc(CN2C(=O)COc3ccc(C=C4SC(=S)NC4=O)cc32)c1 [Example 334, 4-(5-Methyl-pyridin-3-ylmethyl)-6-(4-oxo-2-thioxo-thiazolidin-5-ylidenemethyl)-4H-1,4-benzoxazin-3-one] | 0.025
26 | CC(C)n1cnc2cc(CN3C(=O)COc4ccc(C=C5SC(=S)NC5=O)cc43)ccc21 [Example 335, 4-(1-Isopropyl-1H-benzimidazol-5-ylmethyl)-6-(4-oxo-2-thioxo-thiazolidin-5-ylidenemethyl)-4H-1,4-benzoxazin-3-one] | 0.034
27 | CC(C)n1cnc2ccc(CN3C(=O)COc4ccc(C=C5SC(=S)NC5=O)cc43)cc21 [Example 336, 4-(3-Isopropyl-3H-benzimidazol-5-ylmethyl)-6-(4-oxo-2-thioxo-thiazolidin-5-ylidenemethyl)-4H-1,4-benzoxazin-3-one] | 0.009
28 | O=C1NC(=S)SC1=Cc1ccc2c(c1)N(Cc1ccc3ncccc3c1)C(=O)CO2 [Example 337, 6-(4-Oxo-2-thioxo-thiazolidin-5-ylidenemethyl)-4-quinolin-6-ylmethyl-4H-1,4-benzoxazin-3-one] | 0.008
29 | O=C1NC(=O)C(=Cc2ccc3c(c2)N(Cc2ccoc2)C(=O)CO3)S1 [Example 338, 5-(4-Furan-3-ylmethyl-3-oxo-3,4-dihydro-2H-1,4-benzoxazin-6-ylmethylene)-thiazolidine-2,4-dione] | 0.012
30 | Cc1cc(CN2C(=O)COc3ccc(C=C4SC(=S)NC4=O)cc32)n(C)n1 [Example 339, 4-(2,5-Dimethyl-2H-pyrazol-3-ylmethyl)-6-(4-oxo-2-thioxo-thiazolidin-5-ylidenemethyl)-4H-1,4-benzoxazin-3-one] | 0.08
31 | O=C1NC(=S)SC1=Cc1ccc2c(c1)N(Cc1ccoc1)C(=O)CO2 [Example 340, 4-Furan-3-ylmethyl-6-(4-oxo-2-thioxo-thiazolidin-5-ylidenemethyl)-4H-1,4-benzoxazin-3-one] | 0.013
32 | O=C1NC(=S)S/C1=C\c1cc(F)c2c(c1)N(Cc1ccc(Cl)c(Cl)c1)C(=O)CO2 [Example 341, 4-(3,4-Dichloro-benzyl)-8-fluoro-6-[4-oxo-2-thioxo-thiazolidin-(5Z)-ylidenemethyl]-4H-benzo[1,4]oxazin-3-one] | 0.003

test system: not given; assay: not given; conditions: not given

Row | SMILES | melting point [°C]
33 | O=C1NC(=S)SC1=Cc1ccc2c(c1)N(OCc1ccc(Cl)c(Cl)c1)C(=O)CO2 [Example 88, 4-(3,4-Dichloro-benzyloxy)-6-(4-oxo-2-thioxo-thiazolidin-5-ylidenemethyl)-4H-benzo[1,4]oxazin-3-one] | > 300
34 | Cc1cc(C)cc(CON2C(=O)COc3ccc(C=C4SC(=S)NC4=O)cc32)c1 [Example 89, 4-(3,5-Dimethyl-benzyloxy)-6-(4-oxo-2-thioxo-thiazolidin-5-ylidenemethyl)-4H-benzo[1,4]oxazin-3-one] | > 300
35 | O=C1NC(=S)SC1=Cc1ccc2c(c1)N(OCc1ccccc1)C(=O)CO2 [Example 90, 4-Benzyloxy-6-(4-oxo-2-thioxo-thiazolidin-5-ylidenemethyl)-4H-benzo[1,4]oxazin-3-one] | > 300
36 | Cc1cc(C=C2SC(=S)NC2=O)cc2c1OCC(=O)N2Cc1ccc(CN2CCCCC2)cc1 [Example 91, 8-Methyl-6-(4-oxo-2-thioxo-thiazolidin-5-ylidenemethyl)-4-(4-piperidin-1-ylmethyl-benzyl)-4H-benzo[1,4]oxazin-3-one] | 277 to 278
37 | CCN(CC)Cc1ccc(CN2C(=O)COc3c(C)cc(C=C4SC(=S)NC4=O)cc32)cc1 [Example 92, 4-(4-Diethylaminomethyl-benzyl)-8-methyl-6-(4-oxo-2-thioxo-thiazolidin-5-ylidenemethyl)-4H-benzo[1,4]oxazin-3-one] | 250 to 252
38 | CCN(CC)Cc1ccc(CN2C(=O)COc3ccc(C=C4SC(=O)NC4=O)cc32)cc1 [Example 93, 5-[4-(4-Diethylaminomethyl-benzyl)-3-oxo-3,4-dihydro-2H-benzo[1,4]oxazin-6-ylmethylene]-thiazolidine-2,4-dione] | 244 to 246
